Source: patent publication US20260138958A1, “SUBSTITUTED N-PHENYLURACILS AND SALTS THEREOF, AND USE THEREOF AS HERBICIDAL ACTIVE SUBSTANCES” (Bayer Aktiengesellschaft, priority 2022, published 2026)

Key:
Type in all cases: in vivo
[1] = system: Triticum aestivum (TRZAS); assay: Post-emergence crop plant compatibility, greenhouse pot test
Procedure: (§1) Seeds of monocotyledonous and dicotyledonous weeds and crop plants were placed in sandy loam in plastic or wood-fibre pots, covered with soil and cultivated in a greenhouse under controlled growth conditions. 2 to 3 weeks after sowing, the test plants were treated at the one-leaf stage. The compounds of the invention, formulated in the form of wettable powders (WP) or as emulsion concentrates (EC), were then sprayed onto the green parts of the plants as aqueous suspension or emulsion with addition of 0.5% additive at a water application rate of 600 l/ha (converted). After the test plants had been kept in the greenhouse under optimum growth conditions for about 3 weeks, the activity of the preparations was rated visually in comparison to untreated controls. For example, 100% activity=the plants have died, 0% activity=like control plants.
The observed effects on selected crop plants are reported here in comparison to the untreated controls (values in %).

Setaria viridis (SETVI) = assay: Post-emergence herbicidal action, greenhouse pot test
Procedure: as §1

[2] = system: Polygonum convolvulus (POLCO); assay: as above
Procedure: as §1

[3] = system: Abutilon theophrasti (ABUTH); assay: as above
Procedure: as §1

Bassia scoparia (KCHSC) = assay: as above
Procedure: as §1

[4] = system: Echinochloa crus-galli (ECHCG); assay: as above
Procedure: as §1

[5] = system: Tripleurospermum inodorum (MATIN); assay: as above; settings: 20 g/ha
Procedure: as §1

Lolium rigidum (LOLRI) = assay: as above
Procedure: as §1

Veronica persica (VERPE) = assay: as above
Procedure: as §1

Viola tricolor (VIOTR) = assay: as above
Procedure: as §1

[6] = system: Digitaria sanguinalis (DIGSA); assay: as above
Procedure: as §1

[7] = system: Amaranthus retroflexus (AMARE); assay: as above
Procedure: as §1

[8] = system: Alopecurus myosuroides (ALOMY); assay: as above; settings: 20 g/ha
Procedure: as §1

[9] = system: Pharbitis purpurea (PHBPU); assay: as above
Procedure: as §1

Cn1c(C(F)(F)F)cc(=O)n(-c2cc(Oc3ccccc3OCC(=O)OCC3CC34CCC4)c(Cl)cc2F)c1=O (centres unmarked) [I.7-19]
10%: Post-emergence effect at 1.25 g/ha against TRZAS in % ([1]; crop plant, post-emergence, 1.25 g/ha)
90%: Post-emergence effect at 1.25 g/ha against VERPE in % (Veronica persica (VERPE))
100%: Post-emergence effect at 1.25 g/ha against SETVI in % (Setaria viridis (SETVI)) | Post-emergence effect at 5 g/ha against SETVI in % (Setaria viridis (SETVI); 5 g/ha) | Post-emergence effect at 20 g/ha against SETVI in % (Setaria viridis (SETVI); 20 g/ha) | Post-emergence effect at 5 g/ha against POLCO in % ([2]; 5 g/ha) | Post-emergence effect at 20 g/ha against POLCO in % ([2]; 20 g/ha) | Post-emergence effect at 1.25 g/ha against ABUTH in % [3] | Post-emergence effect at 5 g/ha against ABUTH in % ([3]; 5 g/ha) | Post-emergence effect at 20 g/ha against ABUTH in % ([3]; 20 g/ha) | Post-emergence effect at 20 g/ha against KCHSC in % (Bassia scoparia (KCHSC)) | Post-emergence effect at 5 g/ha against ECHCG in % [4] | Post-emergence effect at 20 g/ha against ECHCG in % ([4]; 20 g/ha) | Post-emergence effect at 20 g/ha against MATIN in % [5] | Post-emergence effect at 5 g/ha against VERPE in % (Veronica persica (VERPE); 5 g/ha) | Post-emergence effect at 20 g/ha against VERPE in % (Veronica persica (VERPE); 20 g/ha) | Post-emergence effect at 1.25 g/ha against VIOTR in % (Viola tricolor (VIOTR)) | Post-emergence effect at 5 g/ha against VIOTR in % (Viola tricolor (VIOTR)) | Post-emergence effect at 20 g/ha against VIOTR in % (Viola tricolor (VIOTR); 20 g/ha) | Post-emergence effect at 5 g/ha against DIGSA in % [6] | Post-emergence effect at 20 g/ha against DIGSA in % [6] | Post-emergence effect at 1.25 g/ha against AMARE in % ([7]; 1.25 g/ha) | Post-emergence effect at 5 g/ha against AMARE in % ([7]; 5 g/ha) | Post-emergence effect at 20 g/ha against AMARE in % ([7]; 20 g/ha) | Post-emergence effect at 20 g/ha against ALOMY in % [8] | Post-emergence effect at 5 g/ha against PHBPU in % ([9]; 5 g/ha) | Post-emergence effect at 20 g/ha against PHBPU in % ([9]; 20 g/ha)
80%: Post-emergence effect at 1.25 g/ha against KCHSC in % (Bassia scoparia (KCHSC)) | Post-emergence effect at 5 g/ha against KCHSC in % (Bassia scoparia (KCHSC)) | Post-emergence effect at 20 g/ha against LOLRI in % (Lolium rigidum (LOLRI)) | Post-emergence effect at 1.25 g/ha against PHBPU in % ([9]; 1.25 g/ha)

CC(OC(=O)COc1ccccc1Oc1cc(-n2c(=O)cc(C(F)(F)F)n(C)c2=O)c(F)cc1Cl)C1CC1 (centres unmarked) [I.7-2, 1-Cyclopropylethyl (2-{2-chloro-4-fluoro-5-[3-methyl-2,6-dioxo-4-(trifluoromethyl)-3,6-dihydropyrimidin-1(2H)-yl]phenoxy}phenoxy)acetate]
80%: Post-emergence effect at 1.25 g/ha against ABUTH in % [3] | pest or weed control at 20 g/ha ([8]; Alopecurus myosuroides, 504 h, read-out: Post-emergence effect at 20 g/ha against ALOMY in %)
10%: Post-emergence effect at 1.25 g/ha against TRZAS in % ([1]; Triticum aestivum, in vivo)
100%: Post-emergence effect at 1.25 g/ha against SETVI in % (Setaria viridis (SETVI)) | pest or weed control at 5 g/ha (Setaria viridis (SETVI); Setaria viridis, 504 h, 5 g/ha, read-out: Post-emergence effect at 5 g/ha against SETVI in %) | pest or weed control at 20 g/ha (Setaria viridis (SETVI); Setaria viridis, 504 h, 20 g/ha, read-out: Post-emergence effect at 20 g/ha against SETVI in %) | pest or weed control at 5 g/ha ([2]; Fallopia convolvulus, 504 h, 5 g/ha, read-out: Post-emergence effect at 5 g/ha against POLCO in %) | pest or weed control at 20 g/ha ([2]; Fallopia convolvulus, 504 h, 20 g/ha, read-out: Post-emergence effect at 20 g/ha against POLCO in %) | pest or weed control at 5 g/ha ([3]; Abutilon theophrasti, 504 h, 5 g/ha, read-out: Post-emergence effect at 5 g/ha against ABUTH in %) | pest or weed control at 20 g/ha ([3]; Abutilon theophrasti, 504 h, 20 g/ha, read-out: Post-emergence effect at 20 g/ha against ABUTH in %) | Post-emergence effect at 1.25 g/ha against KCHSC in % (Bassia scoparia (KCHSC)) | Post-emergence effect at 5 g/ha against KCHSC in % (Bassia scoparia (KCHSC)) | Post-emergence effect at 20 g/ha against KCHSC in % (Bassia scoparia (KCHSC)) | Post-emergence effect at 5 g/ha against ECHCG in % [4] | pest or weed control at 20 g/ha ([4]; Echinochloa crus-galli, 504 h, 20 g/ha, read-out: Post-emergence effect at 20 g/ha against ECHCG in %) | pest or weed control at 20 g/ha ([5]; Tripleurospermum inodorum, 504 h, read-out: Post-emergence effect at 20 g/ha against MATIN in %) | Post-emergence effect at 20 g/ha against LOLRI in % (Lolium rigidum (LOLRI)) | Post-emergence effect at 1.25 g/ha against VERPE in % (Veronica persica (VERPE)) | pest or weed control at 5 g/ha (Veronica persica (VERPE); Veronica persica, 504 h, 5 g/ha, read-out: Post-emergence effect at 5 g/ha against VERPE in %) | pest or weed control at 20 g/ha (Veronica persica (VERPE); Veronica persica, 504 h, 20 g/ha, read-out: Post-emergence effect at 20 g/ha against VERPE in %) | Post-emergence effect at 1.25 g/ha against VIOTR in % (Viola tricolor (VIOTR)) | Post-emergence effect at 5 g/ha against VIOTR in % (Viola tricolor (VIOTR)) | pest or weed control at 20 g/ha (Viola tricolor (VIOTR); Viola tricolor, 504 h, 20 g/ha, read-out: Post-emergence effect at 20 g/ha against VIOTR in %) | Post-emergence effect at 1.25 g/ha against DIGSA in % ([6]; 1.25 g/ha) | Post-emergence effect at 5 g/ha against DIGSA in % [6] | Post-emergence effect at 20 g/ha against DIGSA in % [6] | pest or weed control at 1.25 g/ha ([7]; Amaranthus retroflexus, 504 h, 1.25 g/ha, read-out: Post-emergence effect at 1.25 g/ha against AMARE in %) | pest or weed control at 5 g/ha ([7]; Amaranthus retroflexus, 504 h, 5 g/ha, read-out: Post-emergence effect at 5 g/ha against AMARE in %) | pest or weed control at 20 g/ha ([7]; Amaranthus retroflexus, 504 h, 20 g/ha, read-out: Post-emergence effect at 20 g/ha against AMARE in %) | pest or weed control at 5 g/ha ([9]; Ipomoea purpurea, 504 h, 5 g/ha, read-out: Post-emergence effect at 5 g/ha against PHBPU in %) | pest or weed control at 20 g/ha ([9]; Ipomoea purpurea, 504 h, 20 g/ha, read-out: Post-emergence effect at 20 g/ha against PHBPU in %)
